For two compounds, IC50 results are on record in patent publication US6632820B1, “Pyrimidine compounds” (AstraZeneca AB, priority 1998, dated 2003).

The assay addresses T1, CDK4/Cyclin D1 (Homo sapiens, UniProt P11802).
T1 construct: made in house; host or cells: SF21 insect cells (Spodoptera frugiperda), baculovirus co-infection, vector pVL1393
Nature of the assay: CDK Inhibition Assay (Scintillation Proximity Assay, GST-Retinoblastoma substrate). It counts as biochemical. The note with it: in-vitro kinase assay, incorporation of [γ-33-P]-ATP into GST-Rb, 60 minutes at room temperature; read-out: CDK4 inhibitory activity IC50. As for the experimental part: The compounds were tested in an in vitro kinase assay in 96 well format using Scintillation Proximity Assay (SPA—obtained from Amersham) for measuring incorporation of [γ-33-P]-Adenosine Triphosphate into a test substrate (GST-Retinoblastoma). In each well was placed the compound to be tested (diluted in DMSO and water to correct, concentrations) and in control wells either p 16 as an inhibitor control or DMSO as a positive control. Approximately 0.5 μl of CDK4/Cyclin D1 partially-purified enzyme (amount dependent on enzyme activity) diluted in 25 μl incubation buffer was added to each well then 20 μl of GST-Rb/ATP/ATP33 mixture (containing 0.54 μg GST-Rb and 0.2 μM ATP and 0.14 μCi [γ-33-P]-Adenosine Triphosphate), and the resulting mixture shaken gently, then incubated at room temperature for 60 minutes. To each well was then added 150 μL stop solution containing (0.8 mg/well of Protein A-PVT SPA bead (Amersham)), 20 pM/well of Anti-Glutathione Transferase, Rabbit IgG (obtained from Molecular Probes), 61 mM EDTA and 50 mM HEPES pH 7.5 containing 0.05% sodium azide. The plates were sealed with Topseal-S plate sealers, left for two hours then spun at 2500 rpm, 1124×g., for 5 minutes. The plates were read on a Topcount for 30 seconds per well. […]
(SPA uses beads or plates that emit light when radiolabelled molecules are held near them.)

T1 sequence (P11802 whole entry): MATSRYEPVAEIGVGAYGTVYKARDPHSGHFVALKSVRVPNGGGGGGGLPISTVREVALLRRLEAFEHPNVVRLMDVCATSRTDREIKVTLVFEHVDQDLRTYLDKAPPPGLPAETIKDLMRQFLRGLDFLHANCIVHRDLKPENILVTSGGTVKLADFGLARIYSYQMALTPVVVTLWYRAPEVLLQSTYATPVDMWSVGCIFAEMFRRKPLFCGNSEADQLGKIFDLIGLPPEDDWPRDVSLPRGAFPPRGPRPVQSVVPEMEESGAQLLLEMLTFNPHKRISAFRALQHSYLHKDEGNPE
T1 sequence (P24385 whole entry partner): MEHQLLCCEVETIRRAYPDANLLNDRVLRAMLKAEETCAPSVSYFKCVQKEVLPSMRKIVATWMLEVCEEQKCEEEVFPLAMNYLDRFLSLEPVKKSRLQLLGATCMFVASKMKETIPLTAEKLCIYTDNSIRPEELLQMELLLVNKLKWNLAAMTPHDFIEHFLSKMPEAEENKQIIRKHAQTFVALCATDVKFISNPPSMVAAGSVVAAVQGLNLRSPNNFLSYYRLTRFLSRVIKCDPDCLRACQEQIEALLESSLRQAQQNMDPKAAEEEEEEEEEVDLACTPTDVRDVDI

Regarding `Cc1ccc(N(CC#N)c2cc(Nc3ccc(OCC(O)CN(C)C)cc3)ncn2)c(Br)c1` (centres unmarked) [Example 1, 4-{4-[3-(N,N-Dimethyl)amino-2-hydroxyproroxy]anilino}-6-(N-cyanomethyl-2-bromo-4-methylanilino)pyrimidine], the IC50 (commonly the concentration that gives 50% inhibition) came to 110 nM.
Take `Cc1ccc(Cl)c(N(CC#N)c2cc(Nc3ccc(OCC(O)CN(C)C)cc3)ncn2)c1` (centres unmarked) [Example 2, 4-{4-[3-(N,N-Dimethyl)amino-2-hydroxylropoxy]anilino}-6-(N-cyanomethyl-2-chloro-5-methylanilino)pyrimidine]: the IC50 stood at 70 nM.
